Measurements from the NIST ThermoML archive (doi:10.1021/je700260f).
Several values for one entry are separate records, joined by “and”; a condition that tells them apart may be missing. Equal entries are not always repeated.

Conditions: Liquid, Vibrating tube method

FC(C(F)(F)F)C(F)(F)F [1,1,1,2,3,3,3-heptafluoropropane]
Conditions | mass density
283.14 K, 31470 kPa | 1570.9 kg/m3
283.14 K, 31923 kPa | 1572.2 kg/m3
283.14 K, 31954 kPa | 1572.2 kg/m3
283.14 K, 31990 kPa | 1572.3 kg/m3
283.14 K, 32053 kPa | 1572.5 kg/m3
283.14 K, 32196 kPa | 1572.9 kg/m3
283.14 K, 32239 kPa | 1573 kg/m3
283.14 K, 32276 kPa | 1573 kg/m3
283.14 K, 32317 kPa | 1573.1 kg/m3
283.14 K, 32360 kPa | 1573.2 kg/m3
283.14 K, 32439 kPa | 1573.5 kg/m3
283.14 K, 32476 kPa | 1573.6 kg/m3
283.14 K, 32513 kPa | 1573.7 kg/m3
283.14 K, 32546 kPa | 1573.8 kg/m3
283.14 K, 32585 kPa | 1573.8 kg/m3
283.14 K, 32618 kPa | 1574 kg/m3
283.14 K, 32651 kPa | 1574 kg/m3
283.14 K, 32687 kPa | 1574.2 kg/m3
283.14 K, 32724 kPa | 1574.4 kg/m3
283.14 K, 32761 kPa | 1574.4 kg/m3
283.14 K, 32793 kPa | 1574.4 kg/m3
283.14 K, 32841 kPa | 1574.7 kg/m3
283.14 K, 32986 kPa | 1574.9 kg/m3
283.14 K, 33019 kPa | 1575.2 kg/m3
283.14 K, 33051 kPa | 1575.2 kg/m3
283.14 K, 33098 kPa | 1575.1 kg/m3
283.14 K, 33128 kPa | 1575.4 kg/m3
283.14 K, 33158 kPa | 1575.5 kg/m3
283.14 K, 33205 kPa | 1575.6 kg/m3
283.14 K, 33237 kPa | 1575.7 kg/m3
283.14 K, 33312 kPa | 1575.9 kg/m3
283.15 K, 461 kPa | 1449.6 kg/m3 and 1449.7 kg/m3 and 1449.5 kg/m3
283.15 K, 462 kPa | 1449.6 kg/m3 and 1449.5 kg/m3 and 1449.7 kg/m3
283.15 K, 463 kPa | 1449.6 kg/m3
283.15 K, 465 kPa | 1449.6 kg/m3
283.15 K, 485 kPa | 1449.7 kg/m3
283.15 K, 513 kPa | 1449.9 kg/m3
283.15 K, 538 kPa | 1450.1 kg/m3
283.15 K, 571 kPa | 1450.2 kg/m3
283.15 K, 601 kPa | 1450.5 kg/m3
283.15 K, 635 kPa | 1450.8 kg/m3
283.15 K, 666 kPa | 1450.9 kg/m3
283.15 K, 696 kPa | 1451.1 kg/m3
283.15 K, 723 kPa | 1451.2 kg/m3
283.15 K, 745 kPa | 1451.3 kg/m3
283.15 K, 785 kPa | 1451.6 kg/m3
283.15 K, 825 kPa | 1451.8 kg/m3
283.15 K, 870 kPa | 1452 kg/m3
283.15 K, 902 kPa | 1452.3 kg/m3
283.15 K, 2647 kPa | 1462.4 kg/m3
283.15 K, 2695 kPa | 1462.6 kg/m3
283.15 K, 2733 kPa | 1462.7 kg/m3
283.15 K, 2772 kPa | 1462.9 kg/m3
283.15 K, 2817 kPa | 1463.3 kg/m3
283.15 K, 2855 kPa | 1463.4 kg/m3
283.15 K, 2910 kPa | 1463.7 kg/m3
283.15 K, 2943 kPa | 1464 kg/m3
283.15 K, 2982 kPa | 1464.2 kg/m3
283.15 K, 3012 kPa | 1464.3 kg/m3
283.15 K, 3043 kPa | 1464.5 kg/m3
283.15 K, 3065 kPa | 1464.6 kg/m3
283.15 K, 3097 kPa | 1464.7 kg/m3
283.15 K, 3117 kPa | 1464.9 kg/m3
283.15 K, 3653 kPa | 1467.8 kg/m3
283.15 K, 3681 kPa | 1467.9 kg/m3
283.15 K, 3713 kPa | 1468.1 kg/m3
283.15 K, 3737 kPa | 1468.2 kg/m3
283.15 K, 3764 kPa | 1468.5 kg/m3
283.15 K, 3789 kPa | 1468.4 kg/m3
283.15 K, 3818 kPa | 1468.6 kg/m3
283.15 K, 3851 kPa | 1468.8 kg/m3
283.15 K, 3880 kPa | 1469 kg/m3
283.15 K, 3906 kPa | 1469.1 kg/m3
283.15 K, 3935 kPa | 1469.3 kg/m3
283.15 K, 3961 kPa | 1469.4 kg/m3
283.15 K, 4806 kPa | 1473.8 kg/m3
283.15 K, 4895 kPa | 1474.2 kg/m3
283.15 K, 4922 kPa | 1474.4 kg/m3
283.15 K, 4945 kPa | 1474.4 kg/m3
283.15 K, 5000 kPa | 1474.7 kg/m3
283.15 K, 5032 kPa | 1474.9 kg/m3
283.15 K, 5060 kPa | 1475.1 kg/m3
283.15 K, 5088 kPa | 1475.3 kg/m3
283.15 K, 5115 kPa | 1475.2 kg/m3
283.15 K, 5147 kPa | 1475.5 kg/m3
283.15 K, 5176 kPa | 1475.7 kg/m3
283.15 K, 5204 kPa | 1475.8 kg/m3
283.15 K, 5232 kPa | 1476 kg/m3
283.15 K, 5260 kPa | 1476.1 kg/m3
283.15 K, 5284 kPa | 1476.2 kg/m3
283.15 K, 5323 kPa | 1476.4 kg/m3
283.15 K, 5350 kPa | 1476.5 kg/m3
283.15 K, 5373 kPa | 1476.8 kg/m3
283.15 K, 5402 kPa | 1476.8 kg/m3
283.15 K, 5425 kPa | 1477 kg/m3
283.15 K, 5522 kPa | 1477.4 kg/m3
283.15 K, 5563 kPa | 1477.6 kg/m3
283.15 K, 5594 kPa | 1477.8 kg/m3
283.15 K, 5634 kPa | 1478 kg/m3
283.15 K, 5666 kPa | 1478.1 kg/m3
283.15 K, 6204 kPa | 1480.7 kg/m3
283.15 K, 6271 kPa | 1480.9 kg/m3
